Measurements published in patent EP2587940B1, “PARTICLES COMPRISING HYDROPHOBIC POLYMER AND HYDROPHOBIC PHENOLIC COMPOUND” (Unilever N.V., priority 2010, dated 2012).

What was measured:
[1] = test system: acetylated LDL metabolism; conditions: Whitman S.C. et al. 2005; cited from earlier work
[2] = Stability in simulated gastro-intestinal conditions (dissolution test, gastric and intestinal phase); type: physicochemical; conditions: gastric phase pH 2 with pepsin in first 2 hours
Procedure: To study the stability of the colloidal dispersion of particles according to the invention in simulated gastro-intestinal conditions, a dissolution test was carried out in simulated gastric and intestinal phases using following conditions. This test indicates whether the particles are suitable to be used as a delivery system for phenolic compounds to the human body. Zein-curcumin particles (5:1 wt/wt) were used. • For gastric phase: Water with 0.05% Tween , pH 2 in first 2 hours with pepsin • For intestinal phase: pH adjusted to 6.8 and bile salts and pancreatin added to the medium. • Sampling point: (5, 15, 30, 60, 90, 120 and 180 mins).

[3] = Photostability under UV irradiation; type: physicochemical; conditions: UV irradiation 302 nm
Text: (§1) Enhanced stability of colloidal dispersion of curcumin-zein to various pH and UV irradiation was studied as follows.

pH stability in buffers = type: physicochemical; conditions: for non-degraded: after 6 hours, 20 microgram per mL curcumin
Text: as §1

[4] = Water dispersibility, USP 2 dissolution test; type: physicochemical; conditions: deionised water with 0.05% Tween 80
Procedure: The aim of the experiment is to see how well formulated curcumin disperses in aqueous media. […] Curcumin determined included both free as well as complexed or encapsulated curcumin. […] Samples were withdrawn at specified time interval (5, 15, 30, 60, 90, 120 and 180 mins) and analysed using UV-vis spectroscopic method.

## COc1ccc(-c2cc(=O)c3c(OC)c(OC)c(OC)c(OC)c3o2)cc1OC [nobiletin]
[1]
  inhibited acetylated LDL metabolism: 50-72%

## COc1cc(/C=C/C(=O)CC(=O)/C=C/c2ccc(O)c(OC)c2)ccc1O [pure curcumin, Curcumin]
[2]; 0 min, then intestinal phase pH 6.8 with bile salts and pancreatin
  release: 0%
[2]; 5 min, then intestinal phase pH 6.8
  release: 18.0 ± 2.0%
[2]; 15 min, then intestinal phase pH 6.8
  release: 18.3 ± 0.3%
[2]; 30 min, then intestinal phase pH 6.8
  release: 20.9 ± 2.2%
[2]; 60 min, then intestinal phase pH 6.8
  release: 21.7 ± 1.9%
[2]; 90 min, then intestinal phase pH 6.8
  release: 38.1 ± 0.5%
[2]; 120 min, then intestinal phase pH 6.8
  release: 36.9 ± 1.4%
[2]; 150 min, then intestinal phase pH 6.8
  release: 37.6 ± 2.3%
[2]; 180 min, then intestinal phase pH 6.8
  release: 37.0 ± 1.2%
[3]; 0 min
  unchanged curcumin level: 100%
[3]; 5 min
  unchanged curcumin level: 93.6%
[3]; 10 min
  unchanged curcumin level: 88.4%
[3]; 15 min
  unchanged curcumin level: 66.7%
[3]; 30 min
  unchanged curcumin level: 59.6%
pH stability in buffers; pH 1.2
  non-degraded: 56.0%
pH stability in buffers; pH 4.5
  non-degraded: 69.7%
pH stability in buffers; pH 6.7
  non-degraded: 67.6%
pH stability in buffers; pH 7.4
  non-degraded: 66.6%
pH stability in buffers; pH 9.0
  colour: turned red in colour
  non-degraded: 52.9%
[4]; 0 min
  cumulative release: 0%
[4]; 15 min
  cumulative release: 18.1 ± 1.3%
[4]; 30 min
  cumulative release: 19.1 ± 1.4%
[4]; 60 min
  cumulative release: 22.6 ± 1.7%
[4]; 90 min
  cumulative release: 25.7 ± 1.9%
[4]; 120 min
  cumulative release: 27.8 ± 2.0%
[4]; 180 min
  cumulative release: 32.8 ± 2.7%
